The text below walks through data of US20220356163A1, “SMALL MOLECULE INHIBITORS OF Id PROTEINS” (MEMORIAL SLOAN KETTERING CANCER CENTER, priority 2019, published 2022).

One experiment has as its target T1, ID1 (Homo sapiens, UniProt P41134).
T1 sequence (P41134 1-155): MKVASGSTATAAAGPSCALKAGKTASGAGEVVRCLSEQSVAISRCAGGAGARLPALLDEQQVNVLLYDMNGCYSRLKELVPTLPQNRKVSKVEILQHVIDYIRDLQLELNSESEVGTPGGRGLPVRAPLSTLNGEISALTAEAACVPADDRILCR
Kind of experiment: Western blot for ID1 in HUVECs. The experiment is classed as cell-based. Further details: host or cells: HUVEC. Particulars: 0-40 μM, 24 hours. As for the experimental part:
Immunoblotting. For immunoblotting, cells were collected by trypsinization, washed with PBS and lysed in homogenization buffer (0.3 M sucrose, 10 mM Tris (pH 8.0), 400 mM sodium chloride, 3 mM magnesium chloride, 0.5% NP40/IGEPAL, 100 μg/mL Aprotinin+Protease inhibitor cocktail (Roche #11 836 153 001). Proteins were separated by SDS-PAGE, transferred to a membrane (LI-COR), probed with primary antibodies overnight at 4° C., and probed with secondary antibodies (LI-COR) for 1-2 hours at room temperature. Proteins were visualized using the LI-COR Odyssey Infrared Imaging detection system. The following primary antibodies were used Id1, Id2, Id3, Id4 (195-14, 9-2-8, 17-3, 82-12, respectively, all from Biocheck), Cyclin D1 (2978, Cell Signaling), Actin (A2066, Sigma), Tubulin (T4026, Sigma). Western blot quantification was carried out using channel 700 and channel 800 intensity data from Odyssey application software version 3.0.30 (LI-COR), subtracting blank values and normalizing to Tubulin.
The activity of AGX51 was tested on primary human umbilical vein endothelial cells (HUVECs) and the HCT116 colorectal cancer cell line, two cell types with different ID1-4 expression profiles. […] The effects of AGX51 on ID3 loss in HUVECs was diminished in the 20-40 μM range compared with ID1, consistent with the weaker perturbation observed in the CD spectra.

A further experiment concerns the target E47 (Homo sapiens, UniProt P15923). As to the kind of experiment: Circular dichroism (CD) of E47. It counts as binding. The conditions noted are these: 0, 10, 20 and 50 μM. As for the experimental part: Circular dichroism. Far UV Circular dichroism (CD) measurements were done on a Jasco J-1500 spectropolarimeter at room temperature using a 0.1 cm cell and a 0.1 mg/mL protein solution in the absence of presence of AGX51, AGX51E1, AGX51E2 or AGX-A. Due to the presence of DMSO in the samples, the lowest wavelength to be scanned is limited.

The test system of experiment [1] is retinal neovascularization. As to the kind of experiment: Retinopathy of prematurity (ROP) model. The conditions noted are these: intraocular injection 10 μg at P12, assessed P17, p<0.01. It counts as in vivo, mouse. As for the experimental part: In the ROP experiment 26 C57BL/6 pups, 36 Id^−/− and 22 Id3^−/− pups were place in 75% O2 at P7. On P12 the mice were returned to room air and at P17 they were euthanized and retinal neovascularization was measured as described above. In the AGX51 ROP experiment, C57BL/6 pups were place in 75% O2 at P7. On P12 the mice were returned to room air and injected in the eye with 10 μg AGX51 or DMSO in the FE (N=15 mice/group). On P17 they were euthanized and retinal neovascularization was measured as described above. Retinal neovascularization pathology can also be studied in mouse models of retinopathy of prematurity (ROP). In this model, post-natal day (P) 7 mice are placed in a 75% O2 chamber, which causes retinal capillary depletion. At P12, the mice are returned to room air, which leads to the development of retinal ischemia and proliferative vascular disease in the retinal vasculature. When this model was applied to Id1 or Id3 knockout mice, a significant decrease in retinal neovascularization was observed (p<0.0001) compared to wild type mice (FIG. 1C).

The next experiment has as its system BT-474. Kind of experiment: MTT assay, BT-474. Particulars: BT-474, HER-2 +ve cell line, 24 hours. The experiment is classed as cell-based. Further details: scale not given here. From the text:
The 4T1 murine mammary tumor cell line and nine breast cancer cell lines representing the major breast cancer subtypes (ER+, HER2+, and TNBC) including MDA-MB-157, MDA-MB-436, MDA-MB-231, MDA-MB-453, MDA-MB-361, BT-474, SK-BR-3, MCF-7 and T47-D will be grown in RPMI or DMEM (Dulbecco's Modified Eagle Medium) media supplemented with 10% FBS (fetal bovine serum), 1% penicillin-streptomycin and 1% L-Glutamine. Patient derived xenograft cell lines BR7, BR11, and IBT will be established directly from breast cancer bone metastases specimens surgically resected from patients with informed consent. BR7 and BR11 specimens will be obtained from ER positive (HER2 negative and PR negative) metastatic breast cancer patients, while the IBT specimen will be obtained from a metastatic, triple negative breast cancer patient. Fresh tumor tissues will be quickly washed with ice cold PBS and minced into about 1-3 mm pieces in MEM medium (without FBS) using sterile razor blades. […] The cells will be treated with either 100 μM DMSO, AGX51, or a compound of the present technology such as AGX-A. The cell morphology and growth will be monitored daily for 1 week by microscopy for changes in morphology or cell death. […] Absorbance will then measured at 570 nm using a plate reader (Synergy 2, BioTek). […]

Another experiment concerns HUVEC. As to the kind of experiment: HUVEC scratch (migration) assay. Particulars: 0-40 μM, 24 hours. It counts as cell-based, human. The procedure: HUVEC scratch assay. HUVECs were seeded on 24-well plate coated with 0.1% fibronectin. After 24 hours when cells were grown to confluency, cells were serum starved for 4 hours in Endothelial Basal Medium (EBM, Lonza) and scraped with a sterile P200 pipette tip to generate a cell free zone. Cells were washed with PBS and stimulated with EGM-2 medium with the indicated AGX concentration for 24 hours. The scratched area at 0 and at 24 hours was visualized using an inverted microscope and photographed with a digital camera at 20× magnification.

Sequence of E47 (P15923 1-651 isoform P15923-2): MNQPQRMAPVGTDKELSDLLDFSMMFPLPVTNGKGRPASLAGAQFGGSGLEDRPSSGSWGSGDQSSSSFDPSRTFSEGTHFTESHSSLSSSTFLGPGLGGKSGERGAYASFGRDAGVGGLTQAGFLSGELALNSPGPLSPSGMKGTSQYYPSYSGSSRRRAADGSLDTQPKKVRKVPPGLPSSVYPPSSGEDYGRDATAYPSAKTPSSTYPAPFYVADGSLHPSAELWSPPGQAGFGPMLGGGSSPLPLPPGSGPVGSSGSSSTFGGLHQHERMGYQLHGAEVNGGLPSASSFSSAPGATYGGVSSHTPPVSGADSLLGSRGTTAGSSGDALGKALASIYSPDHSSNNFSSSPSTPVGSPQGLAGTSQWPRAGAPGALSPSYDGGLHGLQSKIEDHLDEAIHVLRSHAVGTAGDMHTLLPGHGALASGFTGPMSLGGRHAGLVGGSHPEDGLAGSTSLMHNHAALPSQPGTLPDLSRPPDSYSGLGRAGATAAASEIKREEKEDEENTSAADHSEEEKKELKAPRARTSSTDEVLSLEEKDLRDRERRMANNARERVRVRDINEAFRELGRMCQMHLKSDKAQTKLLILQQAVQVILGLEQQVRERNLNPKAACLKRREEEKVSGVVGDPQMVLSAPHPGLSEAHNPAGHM

Turning to `CCC(=O)N(CCC(c1ccc2c(c1)OCO2)c1ccccc1OC)Cc1ccccc1` (racemic) [AGX51, N-(3-(benzo[d][1,3]dioxol-5-yl)-3-(2-methoxyphenyl)propyl)-N-benzylpropionamide], the “concentration at which significant decrease in ID1 protein levels was observed” value on ID1 worked out at 10 µM. Moreover, the “interaction with E47 (CD)” value at E47 was “no evidence of an interaction”. In addition, the retinal neovascularization result in experiment [1] was “significantly reduced retinal neovascularization”. For the same compound, in the experiment on BT-474, the “percentage at 60 μM (IC50 NA)” value is recorded as “NA (60 μM = 53%)”. Also, the HUVEC migration entry in the experiment with HUVEC is “significantly impaired HUVEC migration”.
